Experimental data published in article PMC5884524, “A high content, high throughput cellular thermal stability assay for measuring drug-target engagement in living cells” (PLoS ONE, 2018).
Several values for one entry are separate records, joined by “and”; a condition that tells them apart may be missing. Equal entries are not always repeated. Where two headings read alike, the source gives them in different places. Each block holds one molecule with its values, some of them ahead of it. Peptide text beside a SMILES is read from it. * marks the point of attachment. Cbz = O=C(OCc1ccccc1)*

Tests used:
[1] = target: T1, Chk1 (Homo sapiens, UniProt O14757); assay: Chk1 autophosphorylation (pS296) by immunoblotting and densitometry, HT29 cells; format: cell-based; parameters: Thermal response profile of Chk1 in HT29 cells detected by immunofluorescent imaging with the EP691Y antibody; endogenous in cells; host or cells: HT29; conditions: for IC50: HT29, 10 min
T1 sequence (O14757 1-476): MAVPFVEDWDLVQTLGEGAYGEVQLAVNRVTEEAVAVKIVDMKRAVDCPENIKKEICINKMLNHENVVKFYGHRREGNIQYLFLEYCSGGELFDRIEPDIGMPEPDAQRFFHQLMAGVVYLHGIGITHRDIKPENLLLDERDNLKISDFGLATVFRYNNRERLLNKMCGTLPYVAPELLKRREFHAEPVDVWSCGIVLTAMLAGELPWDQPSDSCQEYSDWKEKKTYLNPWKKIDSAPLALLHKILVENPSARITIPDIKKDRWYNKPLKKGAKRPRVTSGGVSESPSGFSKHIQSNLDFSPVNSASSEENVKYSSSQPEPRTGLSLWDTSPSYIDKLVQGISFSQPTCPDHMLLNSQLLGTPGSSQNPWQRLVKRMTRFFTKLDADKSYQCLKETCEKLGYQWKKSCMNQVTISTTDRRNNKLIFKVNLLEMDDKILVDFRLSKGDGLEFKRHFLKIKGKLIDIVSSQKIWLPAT
Procedure: (§1) Immunoblotting was conducted as previously described.

[2] = target: T1, Chk1; assay: HCIF-CETSA (CETSA by immunofluorescence), low well volume heating, HT29 cells; format: cell-based; parameters: Thermal response profile of Chk1 in HT29 cells detected by immunofluorescent imaging with the EP691Y antibody; endogenous in cells; host or cells: HT29; conditions: for EC50: 25 μL media
Procedure: Compounds were serially diluted in DMSO to 200-times the final assay concentration then diluted 1:200 in media (without FCS). The cell media was removed and replaced with 25 μL of compound in media and incubated at 37°C, 5% CO2 for 10 minutes. The plate was sealed with an aluminum plate seal and heated by floating in a pre-heated water bath (Grant Instruments W14) for 3 minutes. 75 μL of room temperature media (without FCS or compound) was added and the plate incubated at room temperature for 5 minutes. […] Plates were imaged on an Operetta high content imager using a 20x objective and analyzed using Harmony software.

[3] = tested on: HT29 cells; assay: S-phase arrest by Hoechst 33342 imaging, HT29 cells; format: cell-based, human; conditions: HT29, 2.5 mM for 18 hours, n = 6 wells ± SD
Procedure: (§2) Single cell immunofluorescent imaging was conducted as previously described in CellCarrier 96WP or CellCarrier Ultra 96WP (6005550 or 6055300, Perkin Elmer) and imaged on an Operetta high content imager (Perkin Elmer) using a 10, 20 or 40x objective then analyzed using Harmony software (Perkin Elmer).

[4] = target: T1, Chk1; assay: Nuclear pChk1 (S317, S345) by single cell immunofluorescence, HT29 cells; format: cell-based; parameters: Thermal response profile of Chk1 in HT29 cells detected by immunofluorescent imaging with the EP691Y antibody; endogenous in cells; host or cells: HT29; conditions: HT29, 2.5 mM for 18 hours
Procedure: as §2

[5] = target: T1, Chk1; parameters: Thermal response profile of Chk1 in HT29 cells detected by immunofluorescent imaging with the EP691Y antibody; endogenous in cells; host or cells: HT29; conditions: HT29 cells; read-out: CETSA classic EC50; cited from earlier work
[6] = target: T1, Chk1; assay: Chk1 thermal stability by immunofluorescence, PBS immersion heating, HT29 cells; format: cell-based; parameters: Thermal response profile of Chk1 in HT29 cells detected by immunofluorescent imaging with the EP691Y antibody; endogenous in cells; host or cells: HT29; conditions: HT29, 1–10 μM for 30 minutes, heated to 46, 49, 52 or 55°C
Excerpt: (§3) Plates were heated as follows: (i) sealed with adhesive aluminum PCR plate foil and then floated or submerged in a water bath (Grant Instruments W14) containing water pre-heated to the desired temperature or (ii) 1 L of DPBS containing magnesium and calcium (D1283, Sigma) was placed in a clean water bath (SUB6, Grant Instruments) and heated to the required temperature. The media was removed from the wells of the CellCarrier plate and the plate submersed in the DPBS so that all wells were full of DPBS and the plate was not touching the bottom of the water bath. The plate was incubated in the DPBS for 3 minutes, removed, the hot DPBS removed and replaced with 100 μL room temperature DPBS and then incubated at room temperature for 5 minutes. In some experiments, the DPBS was substituted for live cell imaging solution (LCIS, 20 mM Hepes, 140 mM NaCl, 2.5 mM KCl, 1.8 mM CaCl2, 1.0 mM MgCl2, pH 7.4).
as §2

[7] = target: T1, Chk1; parameters: endogenous in cells; conditions: U2OS cells; read-out: CETSA classic EC50; cited from earlier work
[8] = target: T1, Chk1; assay: Chk1 thermal stability by immunofluorescence, sealed plate submerged in water bath, HT29 cells; format: cell-based; parameters: Thermal response profile of Chk1 in HT29 cells detected by immunofluorescent imaging with the EP691Y antibody; endogenous in cells; host or cells: HT29; conditions: HT29, 10 μM for 30 minutes, HU treated or untreated, sealed plate 55°C
Excerpt: as §3, §2

[9] = target: T1, Chk1; assay: Chk1 autophosphorylation (pS296) by immunoblotting and densitometry, U2OS cells; format: cell-based; conditions: 10 min, identical cellular conditions to HCIF-CETSA (Fig 6E)
Procedure: as §1

[10] = target: T1, Chk1; assay: HCIF-CETSA (CETSA by immunofluorescence), low well volume heating, HT29 cells; format: cell-based; parameters: Thermal response profile of Chk1 in HT29 cells detected by immunofluorescent imaging with the EP691Y antibody; endogenous in cells; host or cells: HT29; conditions: HT29, 10 minute incubation, 50 μL media, 51°C (Fig 6D)
[11] = target: T1, Chk1; assay: HCIF-CETSA (CETSA by immunofluorescence), low well volume heating, U2OS cells; format: cell-based; conditions: 10 min
Procedure: 10 000 cells were plated per well of a CellCarrier Ultra 96WP (6055300, Perkin Elmer) and allowed to adhere overnight. Compounds were serially diluted in DMSO to 200-times the final assay concentration then diluted 1:200 in media (without FCS). The cell media was removed and replaced with 25 μL of compound in media and incubated at 37°C, 5% CO2 for 10 minutes. The plate was sealed with an aluminum plate seal and heated by floating in a pre-heated water bath (Grant Instruments W14) for 3 minutes. 75 μL of room temperature media (without FCS or compound) was added and the plate incubated at room temperature for 5 minutes. Cells were fixed by the addition of 100 μL paraformaldehyde (7.4% in PBS) at room temperature for 15 minutes. Cells were washed 3 times with PBS and Chk1 detected with anti-Chk1 rabbit EP691Y monoclonal antibody (Ab40866, Abcam) and an AlexaFluor488 anti-rabbit secondary antibody (A-11034, Thermo Fisher Scientific). Plates were imaged on an Operetta high content imager using a 20x objective and analyzed using Harmony software.

[12] = HT29, 0–40 μM inhibitor, 10 min, 49°C (Fig 8A), read-out: EC50, decrease in nuclear Chk1 fluorescence following heating

IC50 ([1]; same dilution series and conditions as HCIF-CETSA (Fig 8B), read-out: IC50, S296 phosphorylation): 500 nM
EC50 [2, 12]: 1300 ± 300 nM
SMILES: N#Cc1cc2c(cn1)[nH]c1ncc(-c3ccc(CN4CCCCC4)cc3)cc12 [GNE-900, reference compound]

Increase in nuclear Chk1 pS317 [4]: 1.9 fold
Increase in nuclear Chk1 pS345 [4]: 1.6 fold
SMILES: NC(=O)NO [HU, Hydroxyurea]
Cells exhibiting evidence of S-phase arrest [3]: 71.4 ± 0.7%

SMILES: CC(C)C[C@@H](C=O)NC(=O)[C@H](CC(C)C)NC(=O)[C@H](CC(C)C)NC(=O)OCc1ccccc1 [MG-132, reference compound] (Cbz-Leu-Leu-Leu-aldehyde)
Effect on temperature induced decrease in Chk1 nuclear fluorescence ([2]; HT29, 5 μM for 2 hours, then DMSO or 3 μM V158411, 49 or 52°C): did not block

Effect on Chk1 autophosphorylation ([1]; HT29, 0–10 μM for 30 minutes, HU treated and untreated cells (Fig 4B)): inhibited Chk1 autophosphorylation
IC50 ([1]; identical cellular conditions to HCIF-CETSA (Fig 6E), read-out: IC50, Chk1 autophosphorylation (pS296)): ~160 nM
EC50 [2, 12]: 2000 ± 900 nM
EC50 ([2]; HT29, 10 min, 49°C (Fig 6B), read-out: HCIF-CETSA EC50, mean of three independent experiments): 1700 ± 400 nM
EC50 ([2]; HT29, 10 min, 49°C (Fig 6B), read-out: HCIF-CETSA EC50, single values of three independent experiments): 1900 nM and 1200 nM
EC50 ([2]; HT29, 10 min pre-incubation, heated to 46°C (Fig 6A), read-out: EC50, reduction in Chk1 nuclear immunofluorescence): 1900 nM
EC50 ([2]; HT29, 10 min pre-incubation, heated to 49°C (Fig 6A), read-out: EC50, reduction in Chk1 nuclear immunofluorescence): 1900 nM
EC50 ([2]; HT29, 10 min pre-incubation, heated to 52°C (Fig 6A), read-out: EC50, reduction in Chk1 nuclear immunofluorescence): 2500 nM
Effect on thermostabilization of total Chk1 or phosphorylated Chk1 [8]: no effect
IC50 [9]: ~110 nM
EC50 [10]: 1000 nM
EC50 ([11]; U2OS, 25 μL media, 49°C (Fig 6C)): 1400 ± 300 nM
SMILES: CN(C)CC(C)(C)COc1ccc2[nH]c(-c3cc(NC(=O)c4cnn(Cc5ccccc5)c4)c[nH]c3=O)cc2c1 [V158411]
EC50 [5]: 3.3 ± 3.4 µM
Effect on mean nuclear Chk1 intensity after PBS immersion heating [6]: did not alter the mean nuclear Chk1 intensity
EC50 [7]: 2300 ± 1200 nM
Effect on mean nuclear Chk1 fluorescence in unheated cells ([11]; unheated U2OS, 0–20 μM): increased the mean nuclear Chk1 fluorescence
